According to PubChem BioAssay AID2080 (NMMLSC, 2009):
Activity calls are given as the source filed them. No rule for the calls is given here.

Molecular target: Bcl-2-related protein A1 (Homo sapiens) (UniProt Q16548)
Test: inhibitors of Bim binding to Bfl-1, confirmation, biochemical, multiplexed, bead-based flow cytometry, HTS hits (AID 2080)
Details: Bim peptide-Bfl-1 binding; for inhibition of binding: at 100 µM (top of the series)

Sequence of Bcl-2-related protein A1 (Homo sapiens) (Q16548 whole entry, looked up): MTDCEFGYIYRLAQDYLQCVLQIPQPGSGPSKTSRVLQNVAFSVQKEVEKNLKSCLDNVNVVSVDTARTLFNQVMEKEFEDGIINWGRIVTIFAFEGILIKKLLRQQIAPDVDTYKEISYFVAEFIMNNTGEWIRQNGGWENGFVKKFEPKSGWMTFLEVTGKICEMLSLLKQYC

Compound	inhibition of binding	EC50 [nM]
CNC1CCC(Br)CC(C(=O)/C=C/c2cccc(OC)c2OC)C1=O (stereo not drawn)	inactive	
CCN(CC)C(=O)COC(=O)c1cc(-c2ccco2)nc2ccccc12	inactive	
O=c1c2c(n3nnnc3n1Cc1ccccc1)-c1ccccc1CC21CCCC1	inactive	
CCOc1ccccc1CNc1ccc(O)cc1	inactive	
CCN(CC)c1ccc(NC(=O)COc2ccccc2C)cc1S(=O)(=O)Nc1ccccc1OC	inactive	
O=C1c2ccccc2C(=O)N1CN(C(=O)COc1ccc(Cl)cc1Cl)c1cccc(F)c1	inactive	
COc1cc(CNc2ccc3[nH]c(=O)[nH]c3c2)cc(Br)c1OCC(=O)NC(C)(C)C	inactive	
Cc1ccc(C=NNC(=O)CSc2nnc(-c3ccc(Cl)cc3)n2-c2ccccc2)o1	inactive	
Cc1ccc(-c2nc3c(c(=O)[nH]c(=O)n3Cc3ccccc3)n2C)o1	inactive	
O=C(/C=C/c1ccc(-c2ccccc2[N+](=O)[O-])o1)c1ccccc1	inactive	
O=C1NC(=O)C2(Cc3c(nc4ccccn4c3=O)N3CCCCCC32)C(=O)N1Cc1ccccc1 (stereo not drawn)	inactive	
COc1ccc(N2C(=O)C(Cl)=C(NC3C(=O)N(c4ccccc4)N(C)C3C)C2=O)cc1 (stereo not drawn)		1240
Cc1ccc(-c2cc(C(=O)Nc3nccs3)c3ccccc3n2)o1	inactive	
